Assays:
[1] = system: TPTX rats; assay: Repeated administration study in TPTX rats, study 2 (add-on to alfacalcidol); assay type: in vivo, rat; settings: once-daily oral 6 mg kg^−1 plus 38 ng kg^−1 of alfacalcidol, 4 weeks
Method: TPTX was carried out in 6-week-old female Crl:CD (SD) rats (Charles River Laboratories). Rats with serum Ca levels of <8.0 mg dl^−1 at 5 days after surgery were used in the following experiments. The rats were divided into four groups both in study 1 and 2, each with a similar mean value of serum Ca levels and body weight. Sample sizes were determined as described in the above single administration study. To evaluate the calcemic effects of PCO371 and hPTHs, we defined a target therapeutic range for serum Ca of 7.6–11.2 mg dl^−1, which corresponds to the low normal to normal range of serum Ca levels.
TPTX rats were orally treated once daily (vehicle; alfacalcidol (Chugai Pharma Manufacturing) at 38 or 75 ng kg^−1; or alfacalcidol at 38 ng kg^−1 plus PCO371 at 6 mg kg^−1) for 4 weeks. Five or six TPTX rats were assigned to each dose group. The vehicle for alfacalcidol was medium-chain triglyceride (Chugai Pharma Manufacturing). Under isoflurane anaesthesia, jugular vein blood was collected immediately before and at 6 and 10 h after administration to measure serum Ca levels on day 1 (the first dosing day), 8, 14, 22 and 28. Urine was collected for 24 h by using metabolic cages on days 28 and 29. Serum and urine Ca levels were measured in the same way as in the single-dosing study.

[2] = target: T1, hPTHR2 (Homo sapiens, UniProt P49190); assay: cAMP production assay in COS-7 cells expressing hPTHR2; assay type: cell-based; settings: COS-7 cells expressing human PTHR2
T1 construct: expressed in transfected cells; host or cells: COS-7 (transient)
Method: (§1) COS-7 cells (ATCC) were seeded into a 96-well flat-bottomed plate (1.4 × 10^4 cells per 100 μl per well) and incubated overnight. The next day, the COS-7 cells were transfected by adding 10 μl of a mixture of hPTHR1, hPTHR2 or mutant hPTHR1 plasmid, rat PTHR1 or rat PTHR2 plasmid, or empty vector (0.1 μg per well), FuGENE HD Transfection Reagent (0.4 μl per well, Promega), and Opti-MEM I Reduced Serum Medium (10 μl per well, Life Technologies) to each well. […] The plate was placed in a 37 °C constant-temperature water bath for 20 min to allow the reaction to proceed. After incubation, the liquid in the wells was discarded, the wells were washed with the assay medium (100 μl per well), and the plate was frozen on dry ice. Next, 40 μl of 50 mmol l^−1 HCl was added to each well, and the plate was stored in a freezer set at ≤−20 °C. The cAMP concentrations were measured by using a cAMP EIA kit (GE Healthcare). EC50 values were determined from three independent experiments in duplicate by a non-linear regression Emax model (JMP ver.9.0.2, SAS Institute). The geometric mean of the EC50 values obtained in three experiments in duplicate was calculated using Microsoft Office Excel 2007. […]

[3] = system: normal dogs; assay: Single administration study in normal dogs; assay type: in vivo, dog; settings: single oral administrations 3.0−30 mg kg^−1
Method: Marshall Beagle dogs (20 months old, male, Marshall BioResources Japan Inc) were treated once orally (vehicle or PCO371 at 3, 10 or 30 mg kg^−1). Six dogs were assigned to each group. Vehicle for PCO371 was the same as in the rat studies. The sample size was determined based on previous experiments with hPTHs in our laboratories (n=6). Blood was collected from the cephalic vein immediately before and at 1, 2, 4, 6, 8, 10 and 24 h after administration to measure serum Ca levels (o-CPC method, Wako Pure Chemical Industries).

[4] = Pharmacokinetics in normal rats; settings: for half-life / AUC(0-inf) / Cmax / Tmax: female, RccHan:WIST, rat, plasma, po
Method: PCO371 was administered at a dose of 2, 6 or 18 mg kg^−1 orally to 7-week-old normal female rats (RccHan: WIST, JLA; three rats for each dose group), or at a dose of 2, 6 or 18 mg kg^−1 orally to 7-week-old female TPTX rats [Crl:CD(SD), Charles River Laboratories; three TPTX rats for each dose group] or at 30 mg kg^−1 orally or 3, 10 mg kg^−1 intravenously to 55-week-old OVX rats as described above. Blood samples were collected at 15 and 30 min, and 1, 2, 4, 8 and 24 h after administration. […] The concentrations of plasma PCO371 were determined by liquid chromatography–tandem mass spectrometry [LC-MS/MS (API-3200 (AB SCIEX), detection limit: 1 ng ml^−1).

[5] = target: T2, rat PTHR2 (Rattus norvegicus, UniProt P70555); assay: cAMP production assay in COS-7 cells expressing rat PTHR2; assay type: cell-based
T2 construct: expressed in transfected cells; host or cells: COS-7 (transient)
Method: as §1

[6] = system: TPTX rats; assay: Single administration study in TPTX rats; assay type: in vivo, rat; settings: TPTX rats, single oral administration
Method: TPTX was carried out in 6-week-old female Crl:CD(SD) rats (Charles River Laboratories). Rats with serum Ca levels of <8.0 mg dl^−1 at 5 days after surgery were used for the experiment. The rats were divided into six groups, each with a similar mean value of serum Ca levels and body weight. TPTX rats were treated once orally (vehicle or PCO371 at 1.3, 6.5 or 33 mg kg^−1) or subcutaneously (vehicle or hPTH(1–84) (Chugai Pharmaceutical) at 9 nmol kg^−1). Six TPTX rats were assigned to each dose group. The sample size was determined based on previous experiments and a published study with hPTHs and LA-PTH in our laboratories[24] (n=5–6). Vehicle for PCO371 was the same as in the OVX rat study, and phosphate-citrate buffer (pH 6.0) was used as vehicle for hPTH(1–84). Under isoflurane anaesthesia, jugular vein blood was collected immediately before and at 1, 2, 6, 10 and 24 h after administrations to measure serum Ca (o-CPC method, Wako Pure Chemical Industries) and Pi levels (xanthine oxidase method, Wako Pure Chemical Industries).
In another experiment, the effects of a single treatment with PCO371 or hPTH(1–34) on serum Ca and Pi in TPTX rats (6-week-old) were evaluated at the dose of 3, 9.5 or 30 mg kg^−1 (PCO371, p.o.) or 9 nmol kg^−1 (hPTH(1–34), s.c.) according to the same method as that described above.

T2 sequence (P70555 25-546): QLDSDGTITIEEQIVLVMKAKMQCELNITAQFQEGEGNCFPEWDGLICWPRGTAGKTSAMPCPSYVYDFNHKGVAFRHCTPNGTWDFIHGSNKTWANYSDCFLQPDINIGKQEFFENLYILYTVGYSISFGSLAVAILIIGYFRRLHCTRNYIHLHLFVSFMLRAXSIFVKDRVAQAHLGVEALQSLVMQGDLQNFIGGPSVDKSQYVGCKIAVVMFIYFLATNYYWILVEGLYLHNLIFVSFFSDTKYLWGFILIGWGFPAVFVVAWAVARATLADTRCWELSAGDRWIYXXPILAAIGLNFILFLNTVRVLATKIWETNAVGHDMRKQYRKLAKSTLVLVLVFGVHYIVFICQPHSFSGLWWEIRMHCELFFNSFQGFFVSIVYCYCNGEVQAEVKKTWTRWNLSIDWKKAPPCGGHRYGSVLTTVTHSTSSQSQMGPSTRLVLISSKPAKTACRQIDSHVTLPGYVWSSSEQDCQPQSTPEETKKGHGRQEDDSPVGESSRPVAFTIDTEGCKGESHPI
T1 sequence (P49190 25-550): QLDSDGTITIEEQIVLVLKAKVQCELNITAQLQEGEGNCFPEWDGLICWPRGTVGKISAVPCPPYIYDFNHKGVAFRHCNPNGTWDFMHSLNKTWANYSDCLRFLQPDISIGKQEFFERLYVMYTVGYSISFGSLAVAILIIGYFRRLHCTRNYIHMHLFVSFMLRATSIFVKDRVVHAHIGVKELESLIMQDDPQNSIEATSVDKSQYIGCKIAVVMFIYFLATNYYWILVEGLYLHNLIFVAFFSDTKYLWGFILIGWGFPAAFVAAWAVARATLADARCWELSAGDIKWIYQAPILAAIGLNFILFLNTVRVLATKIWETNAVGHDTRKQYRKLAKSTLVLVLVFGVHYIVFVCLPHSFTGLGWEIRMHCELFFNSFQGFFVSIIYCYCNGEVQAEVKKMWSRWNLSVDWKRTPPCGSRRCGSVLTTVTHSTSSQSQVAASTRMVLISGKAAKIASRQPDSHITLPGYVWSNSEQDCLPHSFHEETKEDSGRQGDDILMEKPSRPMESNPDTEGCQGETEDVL

With `Cc1cc(N2C(=O)NC(=O)C2(C)C)cc(C)c1CCS(=O)(=O)N1CCC2(CC1)N=C(c1ccc(OC(F)(F)F)cc1)NC2=O` [PCO371, 1-{3,5-dimethyl-4-[2-({4-oxo-2-[4-(trifluoromethoxy)phenyl]-1,3,8-triazaspiro[4.5]dec-1-en-8-yl}sulfonyl)ethyl]phenyl}-5,5-dimethylimidazolidine-2,4-dione] the “serum Ca” value [1] was “comparable with that by 75 ng kg^−1 of alfacalcidol alone”, the “urinary Ca excretion” value [1] was “did not elevate urinary Ca excretion” and the cAMP production [2] was “did not stimulate cAMP production”. The “serum Ca” value [3] was “significantly increased”, the half-life [4] was 1.5 to 1.7 h and the AUC(0-inf) ([4]; 2 mg/kg) was 374 ± 187 ng·h/mL. For the same compound, the Cmax ([4]; 2 mg/kg) was 92.5 ± 37.1 ng/mL, the Tmax ([4]; 2 mg/kg) was 1.5 ± 0.9 h and the half-life ([4]; 2 mg/kg) was 1.5 ± 0.1 h. For the same compound, the AUC(0-inf) ([4]; 6 mg/kg) was 2360 ng·h/mL, the Cmax ([4]; 6 mg/kg) was 727 ± 103 ng/mL and the Tmax ([4]; 6 mg/kg) was 1 h. It also gave a half-life ([4]; 6 mg/kg) of 1.4 ± 0.2 h, an AUC(0-inf) ([4]; 18 mg/kg) of 18600 ng·h/mL and a Cmax ([4]; 18 mg/kg) of 4560 ng/mL. The Tmax ([4]; 18 mg/kg) was 1.3 ± 0.6 h, the half-life ([4]; 18 mg/kg) was 1.7 ± 0.3 h and the “BA (oral bioavailability)” value ([4]; normal rats, p.o. 2 mg kg^−1) was 34%. For the same compound, the “time at which Cmax was attained” value ([4]; normal rats, single oral dose, dose range tested) was 1 to 1.5 h, the cAMP production [5] was “did not stimulate cAMP production” and the “serum Ca” value [6] was “dose-dependently increased”. For the same compound, the “serum Pi” value [6] was “decreased”.
